Assay results reported in ChEMBL document CHEMBL1201862, “PubChem BioAssay data set” (2004).
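The compound was tested at five concentrations on cells cultured in 96-well plates, with a 48-hour exposure period. The concentration for 50% growth inhibition is given as GI50.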 Calls of active or inactive are those of the source. Cut-off read from the data, not from the text of the source: active = GI50 up to about 1.1 µM and inactive = higher.

Columns and labels:
Test in all cases: NCI tumour cell line growth inhibition, 48 h
LXFL 529 = tested on: LXFL 529
COLO 205 = tested on: COLO 205
OVCAR-3 = tested on: OVCAR-3
SN12C = tested on: SN12C
SF-268 = tested on: SF-268
KM-20L2 = tested on: KM-20L2
U-251 = tested on: U-251
M14 = tested on: M14
RPMI-8226 = tested on: RPMI-8226
NCI-H522 = tested on: NCI-H522
UACC-62 = tested on: UACC-62
HCT-15 = tested on: HCT-15
A549 = tested on: A549
ACHN = tested on: ACHN
NCI-H226 = tested on: NCI-H226
IGROV-1 = tested on: IGROV-1
SK-MEL-28 = tested on: SK-MEL-28
CCRF-CEM = tested on: CCRF-CEM
SNB-19 = tested on: SNB-19
LOX IMVI = tested on: LOX IMVI
HL-60 = tested on: HL-60
UACC-257 = tested on: UACC-257
OVCAR-4 = tested on: OVCAR-4
KM12 = tested on: KM12
SF-295 = tested on: SF-295
Malme-3M = tested on: Malme-3M
RXF 631 = tested on: RXF 631
OVCAR-8 = tested on: OVCAR-8
CAKI-1 = tested on: CAKI-1
SNB-75 = tested on: SNB-75
SW-620 = tested on: SW-620
RXF 393 = tested on: RXF 393
SK-MEL-5 = tested on: SK-MEL-5
M19-MEL = tested on: M19-MEL
A498 = tested on: A498
NCI-H23 = tested on: NCI-H23
HCT-116 = tested on: HCT-116
SK-MEL-2 = tested on: SK-MEL-2
TK-10 = tested on: TK-10
DMS-273 = tested on: DMS-273
OVCAR-5 = tested on: OVCAR-5
SK-OV-3 = tested on: SK-OV-3
HOP-92 = tested on: HOP-92
EKVX = tested on: EKVX
DMS-114 = tested on: DMS-114
SNB-78 = tested on: SNB-78
UO-31 = tested on: UO-31
DLD-1 = tested on: DLD-1
MOLT-4 = tested on: MOLT-4
HT-29 = tested on: HT-29
HCC 2998 = tested on: HCC 2998
K562 = tested on: K562
HOP-18 = tested on: HOP-18
786-0 = tested on: 786-0
SF-539 = tested on: SF-539
XF498 = tested on: XF498
NCI-H460 = tested on: NCI-H460
HOP-62 = tested on: HOP-62
SR = tested on: SR

Compound: CC12OC3(C)OC(=O)C(c4ccccc4)(O1)C3(C)O2 (centres undefined)
- GI50 (LXFL 529): > 100 µM (inactive)
- GI50 (COLO 205): > 100 µM (inactive)
- GI50 (OVCAR-3): > 100 µM (inactive)
- GI50 (SN12C): > 100 µM (inactive)
- GI50 (SF-268): > 100 µM (inactive)
- GI50 (KM-20L2): > 100 µM (inactive)
- GI50 (U-251): > 100 µM (inactive)
- GI50 (M14): > 100 µM (inactive)
- GI50 (RPMI-8226): > 100 µM (inactive)
- GI50 (NCI-H522): > 100 µM (inactive)
- GI50 (UACC-62): > 100 µM (inactive)
- GI50 (HCT-15): > 100 µM
- GI50 (A549): > 100 µM (inactive)
- GI50 (ACHN): > 100 µM (inactive)
- GI50 (NCI-H226): > 100 µM (inactive)
- GI50 (IGROV-1): > 100 µM (inactive)
- GI50 (SK-MEL-28): > 100 µM (inactive)
- GI50 (CCRF-CEM): > 100 µM (inactive)
- GI50 (SNB-19): > 100 µM (inactive)
- GI50 (LOX IMVI): > 100 µM (inactive)
- GI50 (HL-60): > 100 µM (inactive)
- GI50 (UACC-257): > 100 µM (inactive)
- GI50 (OVCAR-4): > 100 µM (inactive)
- GI50 (KM12): > 100 µM (inactive)
- GI50 (SF-295): > 100 µM (inactive)
- GI50 (Malme-3M): > 100 µM (inactive)
- GI50 (RXF 631): > 100 µM (inactive)
- GI50 (OVCAR-8): > 100 µM (inactive)
- GI50 (CAKI-1): > 100 µM (inactive)
- GI50 (SNB-75): > 100 µM (inactive)
- GI50 (SW-620): > 100 µM (inactive)
- GI50 (RXF 393): > 100 µM (inactive)
- GI50 (SK-MEL-5): > 100 µM (inactive)
- GI50 (M19-MEL): > 100 µM (inactive)
- GI50 (A498): > 100 µM (inactive)
- GI50 (NCI-H23): > 100 µM (inactive)
- GI50 (HCT-116): > 100 µM (inactive)
- GI50 (SK-MEL-2): > 100 µM (inactive)
- GI50 (TK-10): > 100 µM (inactive)
- GI50 (DMS-273): > 100 µM (inactive)
- GI50 (OVCAR-5): > 100 µM (inactive)
- GI50 (SK-OV-3): > 100 µM (inactive)
- GI50 (HOP-92): > 100 µM (inactive)
- GI50 (EKVX): > 100 µM (inactive)
- GI50 (DMS-114): > 100 µM (inactive)
- GI50 (SNB-78): > 100 µM (inactive)
- GI50 (UO-31): > 100 µM (inactive)
- GI50 (DLD-1): > 100 µM (inactive)
- GI50 (MOLT-4): > 100 µM (inactive)
- GI50 (HT-29): > 100 µM (inactive)
- GI50 (HCC 2998): > 100 µM (inactive)
- GI50 (K562): > 100 µM (inactive)
- GI50 (HOP-18): > 100 µM (inactive)
- GI50 (786-0): > 100 µM (inactive)
- GI50 (SF-539): > 100 µM (inactive)

Compound: C[N+](C)(C)CC(CC(=O)[O-])C1CC1 (centres undefined)
- GI50 (LXFL 529): > 100 µM (inactive)
- GI50 (XF498): > 100 µM (inactive)
- GI50 (COLO 205): > 100 µM (inactive)
- GI50 (OVCAR-3): > 100 µM (inactive)
- GI50 (SN12C): > 100 µM (inactive)
- GI50 (SF-268): > 100 µM (inactive)
- GI50 (KM-20L2): > 100 µM (inactive)
- GI50 (U-251): > 100 µM (inactive)
- GI50 (NCI-H460): > 100 µM (inactive)
- GI50 (M14): > 100 µM (inactive)
- GI50 (RPMI-8226): > 100 µM (inactive)
- GI50 (NCI-H522): > 100 µM (inactive)
- GI50 (UACC-62): > 100 µM (inactive)
- GI50 (HCT-15): > 100 µM
- GI50 (A549): > 100 µM (inactive)
- GI50 (ACHN): > 100 µM (inactive)
- GI50 (IGROV-1): > 100 µM (inactive)
- GI50 (SK-MEL-28): > 100 µM (inactive)
- GI50 (CCRF-CEM): > 100 µM (inactive)
- GI50 (SNB-19): > 100 µM (inactive)
- GI50 (LOX IMVI): > 100 µM (inactive)
- GI50 (HL-60): > 100 µM (inactive)
- GI50 (UACC-257): > 100 µM (inactive)
- GI50 (OVCAR-4): > 100 µM (inactive)
- GI50 (KM12): > 100 µM (inactive)
- GI50 (SF-295): > 100 µM (inactive)
- GI50 (Malme-3M): > 100 µM (inactive)
- GI50 (RXF 631): > 100 µM (inactive)
- GI50 (OVCAR-8): > 100 µM (inactive)
- GI50 (CAKI-1): > 100 µM (inactive)
- GI50 (SNB-75): > 100 µM (inactive)
- GI50 (SW-620): > 100 µM (inactive)
- GI50 (RXF 393): > 100 µM (inactive)
- GI50 (SK-MEL-5): > 100 µM (inactive)
- GI50 (M19-MEL): > 100 µM (inactive)
- GI50 (A498): > 100 µM (inactive)
- GI50 (NCI-H23): > 100 µM (inactive)
- GI50 (SK-MEL-2): > 100 µM (inactive)
- GI50 (TK-10): > 100 µM (inactive)
- GI50 (DMS-273): > 100 µM (inactive)
- GI50 (OVCAR-5): > 100 µM (inactive)
- GI50 (SK-OV-3): > 100 µM (inactive)
- GI50 (HOP-92): > 100 µM (inactive)
- GI50 (EKVX): > 100 µM (inactive)
- GI50 (DMS-114): > 100 µM (inactive)
- GI50 (UO-31): > 100 µM (inactive)
- GI50 (MOLT-4): > 100 µM (inactive)
- GI50 (HOP-62): > 100 µM (inactive)
- GI50 (HT-29): > 100 µM (inactive)
- GI50 (K562): > 100 µM (inactive)
- GI50 (HOP-18): > 100 µM (inactive)
- GI50 (786-0): > 100 µM (inactive)
- GI50 (SF-539): > 100 µM (inactive)

Compound: C/C(=N\NS(=O)(=O)c1c(C)cc(C)cc1C)c1ccc[n+]([O-])n1
- GI50 (LXFL 529): 11.3 µM (inactive)
- GI50 (OVCAR-3): 12.6 µM (inactive)
- GI50 (SN12C): 14.9 µM (inactive)
- GI50 (SF-268): 20.1 µM (inactive)
- GI50 (KM-20L2): 22.9 µM (inactive)
- GI50 (U-251): 41.7 µM (inactive)
- GI50 (SR): 22.3 µM (inactive)
- GI50 (NCI-H460): 30.7 µM (inactive)
- GI50 (M14): 7.64 µM (inactive)
- GI50 (RPMI-8226): 11.7 µM (inactive)
- GI50 (NCI-H522): 6.61 µM (inactive)
- GI50 (UACC-62): 16.4 µM (inactive)
- GI50 (HCT-15): 14.7 µM
- GI50 (A549): 65.2 µM (inactive)
- GI50 (ACHN): 14.2 µM (inactive)
- GI50 (IGROV-1): 31.6 µM (inactive)
- GI50 (SK-MEL-28): 13.3 µM (inactive)
- GI50 (CCRF-CEM): 3.96 µM (inactive)
- GI50 (SNB-19): > 100 µM (inactive)
- GI50 (HL-60): 6.12 µM (inactive)
- GI50 (UACC-257): 10.3 µM (inactive)
- GI50 (OVCAR-4): 12.8 µM (inactive)
- GI50 (KM12): 38.5 µM (inactive)
- GI50 (SF-295): 62.2 µM (inactive)
- GI50 (RXF 631): 27.5 µM (inactive)
- GI50 (OVCAR-8): 19.6 µM (inactive)
- GI50 (CAKI-1): 4.78 µM (inactive)
- GI50 (SNB-75): 16.9 µM (inactive)
- GI50 (SW-620): 8.05 µM (inactive)
- GI50 (SK-MEL-5): 41.9 µM (inactive)
- GI50 (M19-MEL): 13.9 µM (inactive)
- GI50 (A498): 29.5 µM (inactive)
- GI50 (NCI-H23): 15.5 µM (inactive)
- GI50 (HCT-116): 13.1 µM (inactive)
- GI50 (DMS-273): 16.2 µM (inactive)
- GI50 (OVCAR-5): 26.8 µM (inactive)
- GI50 (SK-OV-3): > 100 µM (inactive)
- GI50 (HOP-92): 9.95 µM (inactive)
- GI50 (EKVX): 12.4 µM (inactive)
- GI50 (DMS-114): 17.3 µM (inactive)
- GI50 (SNB-78): 14.3 µM (inactive)
- GI50 (UO-31): 21.2 µM (inactive)
- GI50 (DLD-1): 7.16 µM (inactive)
- GI50 (MOLT-4): 14.5 µM (inactive)
- GI50 (HOP-62): > 100 µM (inactive)
- GI50 (HT-29): 18.3 µM (inactive)
- GI50 (HCC 2998): 33 µM (inactive)
- GI50 (K562): 4.44 µM (inactive)
- GI50 (HOP-18): 19.2 µM (inactive)
- GI50 (786-0): 14.3 µM (inactive)
- GI50 (SF-539): 13.6 µM (inactive)
